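All cell lines were grown in 96-well plates and treated with compound for 48 hours. TGI denotes the concentration required for complete inhibition of growth.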
Assays:
Test in all cases: NCI tumour cell line growth inhibition, 48 h
786-0 renal = test system: 786-0 renal
A498 renal = test system: A498 renal
A549 NSCLC = test system: A549 NSCLC
ACHN renal = test system: ACHN renal
CAKI-1 renal = test system: CAKI-1 renal
CCRF-CEM leukemia = test system: CCRF-CEM leukemia
COLO 205 colon = test system: COLO 205 colon
DLD-1 colon = test system: DLD-1 colon
DMS 114 small cell lung = test system: DMS 114 small cell lung
DMS 273 small cell lung = test system: DMS 273 small cell lung
EKVX NSCLC = test system: EKVX NSCLC
HCC-2998 colon = test system: HCC-2998 colon
HCT-116 colon = test system: HCT-116 colon
HCT-15 colon = test system: HCT-15 colon
HL-60(TB) leukemia = test system: HL-60(TB) leukemia
HOP-18 NSCLC = test system: HOP-18 NSCLC
HOP-62 NSCLC = test system: HOP-62 NSCLC
HOP-92 NSCLC = test system: HOP-92 NSCLC
HT29 colon = test system: HT29 colon
IGROV1 ovarian = test system: IGROV1 ovarian
K-562 leukemia = test system: K-562 leukemia
KM12 colon = test system: KM12 colon
KM20L2 colon = test system: KM20L2 colon
LOX IMVI melanoma = test system: LOX IMVI melanoma
LXFL 529 NSCLC = test system: LXFL 529 NSCLC
M14 melanoma = test system: M14 melanoma
M19-MEL melanoma = test system: M19-MEL melanoma
MALME-3M melanoma = test system: MALME-3M melanoma
MOLT-4 leukemia = test system: MOLT-4 leukemia
NCI-H226 lung = test system: NCI-H226 lung
NCI-H23 lung = test system: NCI-H23 lung
NCI-H460 lung = test system: NCI-H460 lung
NCI-H522 lung = test system: NCI-H522 lung
OVCAR-3 ovarian = test system: OVCAR-3 ovarian
OVCAR-4 ovarian = test system: OVCAR-4 ovarian
OVCAR-5 ovarian = test system: OVCAR-5 ovarian
OVCAR-8 ovarian = test system: OVCAR-8 ovarian
RXF 393 renal = test system: RXF 393 renal
RXF-631 renal = test system: RXF-631 renal
SF-268 CNS = test system: SF-268 CNS
SF-295 CNS = test system: SF-295 CNS
SF-539 CNS = test system: SF-539 CNS
SK-MEL-2 melanoma = test system: SK-MEL-2 melanoma
SK-MEL-28 melanoma = test system: SK-MEL-28 melanoma
SK-MEL-5 melanoma = test system: SK-MEL-5 melanoma
SK-OV-3 ovarian = test system: SK-OV-3 ovarian
SN12C renal = test system: SN12C renal
SNB-19 CNS = test system: SNB-19 CNS
SNB-75 CNS = test system: SNB-75 CNS
SNB-78 CNS = test system: SNB-78 CNS
SR leukemia = test system: SR leukemia
SW-620 colon = test system: SW-620 colon
TK-10 renal = test system: TK-10 renal
U251 CNS = test system: U251 CNS
UACC-257 melanoma = test system: UACC-257 melanoma
UACC-62 melanoma = test system: UACC-62 melanoma
UO-31 renal = test system: UO-31 renal
RPMI-8226 leukemia = test system: RPMI-8226 leukemia
XF 498 CNS = test system: XF 498 CNS

Measured: TGI

COC(=O)C#CC(N)=O
60.1 µM: K-562 leukemia
19.1 µM: MALME-3M melanoma
62.6 µM: MOLT-4 leukemia
> 50.4 µM: LOX IMVI melanoma
> 81.1 µM: HOP-18 NSCLC
40.6 µM: HOP-92 NSCLC
> 67.1 µM: CAKI-1 renal
> 54.8 µM: SW-620 colon
47.5 µM: SK-MEL-28 melanoma
36.4 µM: CCRF-CEM leukemia
> 100 µM: 786-0 renal | A498 renal | A549 NSCLC | ACHN renal | COLO 205 colon | DLD-1 colon | DMS 114 small cell lung | DMS 273 small cell lung | EKVX NSCLC | HCC-2998 colon | HCT-116 colon | HCT-15 colon | HOP-62 NSCLC | HT29 colon | IGROV1 ovarian | KM12 colon | LXFL 529 NSCLC | M19-MEL melanoma | NCI-H226 lung | NCI-H23 lung | NCI-H460 lung | NCI-H522 lung | OVCAR-3 ovarian | OVCAR-4 ovarian | OVCAR-5 ovarian | RXF 393 renal | RXF-631 renal | SF-268 CNS | SF-295 CNS | SF-539 CNS | SK-MEL-2 melanoma | SK-MEL-5 melanoma | SK-OV-3 ovarian | SN12C renal | SNB-19 CNS | SNB-75 CNS | SNB-78 CNS | U251 CNS | UACC-62 melanoma | UO-31 renal
> 94.9 µM: OVCAR-8 ovarian
42.2 µM: M14 melanoma
99.1 µM: TK-10 renal
19.8 µM: HL-60(TB) leukemia
60.7 µM: SR leukemia
> 31.6 µM: KM20L2 colon
> 70.7 µM: UACC-257 melanoma

Cc1cc(OCC(O)CO)ccc1Cl (centres undefined)
> 100 µM: A498 renal | A549 NSCLC | ACHN renal | CAKI-1 renal | CCRF-CEM leukemia | COLO 205 colon | DLD-1 colon | DMS 114 small cell lung | DMS 273 small cell lung | EKVX NSCLC | HCC-2998 colon | HCT-116 colon | HCT-15 colon | HL-60(TB) leukemia | HOP-18 NSCLC | HOP-62 NSCLC | HOP-92 NSCLC | HT29 colon | IGROV1 ovarian | K-562 leukemia | KM12 colon | KM20L2 colon | LOX IMVI melanoma | LXFL 529 NSCLC | M14 melanoma | M19-MEL melanoma | MALME-3M melanoma | MOLT-4 leukemia | NCI-H226 lung | NCI-H23 lung | NCI-H460 lung | NCI-H522 lung | OVCAR-3 ovarian | OVCAR-4 ovarian | OVCAR-5 ovarian | OVCAR-8 ovarian | RPMI-8226 leukemia | RXF 393 renal | RXF-631 renal | SF-268 CNS | SF-295 CNS | SF-539 CNS | SK-MEL-2 melanoma | SK-MEL-28 melanoma | SK-MEL-5 melanoma | SK-OV-3 ovarian | SN12C renal | SNB-19 CNS | SNB-75 CNS | SR leukemia | SW-620 colon | TK-10 renal | U251 CNS | UACC-257 melanoma | UACC-62 melanoma | UO-31 renal

OC(CCl)CN1CC[N+]2(CC1)CC[N+]1(CCN(CC(O)CCl)CC1)CC2 (centres undefined)
> 50 µM: 786-0 renal | A498 renal | A549 NSCLC | ACHN renal | CAKI-1 renal | CCRF-CEM leukemia | COLO 205 colon | DMS 114 small cell lung | DMS 273 small cell lung | EKVX NSCLC | HCC-2998 colon | HCT-116 colon | HCT-15 colon | HL-60(TB) leukemia | HOP-18 NSCLC | HOP-92 NSCLC | HT29 colon | IGROV1 ovarian | K-562 leukemia | KM12 colon | KM20L2 colon | LXFL 529 NSCLC | M14 melanoma | M19-MEL melanoma | MALME-3M melanoma | MOLT-4 leukemia | NCI-H226 lung | NCI-H23 lung | NCI-H460 lung | NCI-H522 lung | OVCAR-3 ovarian | OVCAR-4 ovarian | OVCAR-8 ovarian | RPMI-8226 leukemia | RXF 393 renal | SF-268 CNS | SF-295 CNS | SF-539 CNS | SK-MEL-2 melanoma | SK-MEL-28 melanoma | SK-MEL-5 melanoma | SK-OV-3 ovarian | SN12C renal | SNB-19 CNS | SNB-75 CNS | SR leukemia | SW-620 colon | TK-10 renal | U251 CNS | UO-31 renal | XF 498 CNS
